In US20050197372A1 (priority 2002, published 2005):

Tests used:
Assay type in all cases: cell-based, human
[1] = tested on: platelet glycoprotein IIb/IIIa antigen (GPIIb, CD41); assay: Whole blood flow cytometry, GP IIb/IIIa antigen expression; conditions: for Expression of platelet glycoprotein IIb/IIIa antigen (GPIIb, CD41): baseline 521.8 ± 98.2
Method: (§1) None of them received aspirin or any other anti-platelet agents. All subjects underwent blood sampling after at least 30 minutes of rest and 2 or more hours of fasting. Blood was drawn between 8 and 10 a.m. in order to avoid any diurnal influence and sampled from an antecubital vein using a 21-gauge butterfly needle containing 3.8% sodium citrate (1:9 volume) after having discarded the first 1.5 ml of free running blood. Eleven Vacutainer tubes (4.5 ml) were collected for a total of 49 ml of whole blood-citrate mixture from each study participant. One tube was kept as an internal control and was incubated with buffer solution. […] To avoid possible observer bias, blood samples were coded and blinded. Sampling procedures, and platelet studies were performed by individuals unaware of the protocol.
(§2) The expression of platelet receptors was determined by using the following monoclonal antibodies: CD31 (platelet endothelial cell adhesion molecule (PECAM-1), CD41 (glycoprotein [GP] IIb/IIIa, (IIb (3), CD42b (GP Ib), CD 51/CD61 ((v (3, or vitronectin receptor), CD62p (P-selectin), CD107a (lysosome associated membrane protein-1; LAMP-1), CD 107b (LAMP-2), CD151 (platelet/endothelial tetraspan antigen-3; PETA-3), and PAC-1 for fibrinogen-platelet (PharMingen, San Diego, Calif.). Platelet-leukocyte interactions were assessed by using dual antibodies for a pan-platelet marker (CD 151), together with CD14, a monocyte/macrophage marker. The blood-citrate mixture (50 μl) was diluted with 450 μl Tris buffered saline (TBS) (10 mmol/L Tris, 0.15 mol/L sodium chloride) and mixed by gently inverting an Eppendorf tube 2 times. Five μl of the corresponding antibodies were then added to each solution and the samples were incubated for 30 minutes. After incubation, 400 μl of 2% buffered paraformaldehyde was added for fixation. The samples were analyzed by a Becton Dickinson FACScan flow cytometer set up to measure fluorescent light scatter, as described in Gurbel P A, et al., J Am Coll Cardiol. 1998; 31: 1466-1473. The data were collected in list mode files and then analyzed. P selectin was expressed as percent positive cells as described in Gurbel P A, et al, Am Heart J 2000; 139: 320-328. Other antigens were expressed as log mean fluorescence intensity.

[2] = tested on: shear-induced platelet aggregation; assay: PFA-100 closure time, epinephrine/collagen cartridge; conditions: baseline 201 ± 22
Method: as §1
The platelet function analyzer (PFA-100′, Dade Behring, Deerfield, Ill.) is a device that simulates changes in primary hemostasis after injury to a small vessel under flow conditions. Kundu S K, et al., Semin Thromb Hemost 1995; 21(Suppl 2): 106-112. The time required to obtain occlusion of the aperture was digitally recorded as a measure of shear-induced platelet aggregation. Closure time determinations were performed in duplicate.

[3] = tested on: glycoprotein Ib (GPIb, CD42b); assay: Whole blood flow cytometry, GP Ib expression; conditions: for Expression of glycoprotein Ib (GPIb, CD42b): baseline 246.4 ± 26.7
Method: as §1, §2

[4] = tested on: platelet-leukocyte microparticles (CD151 + CD14); assay: Whole blood flow cytometry, platelet-leukocyte microparticles; conditions: for Formation of platelet-leukocyte microparticles (CD151 + CD14): baseline 92.2 ± 19.3
Method: as §1, §2

[5] = tested on: platelets (agglutination with fibrinogen-coated beads); assay: Ultegra rapid platelet-function assay (RPFA-ASA); conditions: baseline 159 ± 27
Method: as §1
A rapid platelet-function assay cartridge test (RPFA-ASA, Ultegra® Accumetrics, Inc., San Diego, Calif., USA), using polystyrene beads coated cartridges with lyophilized human fibrinogen-coated microparticles, and propyl gallat served as an agonist. The whole blood citrate mixture was added to the cartridge, and agglutination between platelets and coated beads was recorded. The data mirrored turbidometric platelet aggregation and reflected the degree of platelet prostaglandin blockade. Smith J W, et al., Circulation 1999; 99: 620-625. Ultegra® assays were performed in duplicate. An electronic quality control test was performed on each instrument every day of use prior to performing any subject samples.

[6] = tested on: lysosome associated membrane protein -1 (LAMP-1, CD107a); assay: Whole blood flow cytometry, LAMP-1 expression; conditions: baseline 8.7 ± 3.2
Method: as §1, §2

[7] = tested on: platelet/endothelial tetraspan antigen -3 (PETA-3, CD151); assay: Whole blood flow cytometry, PETA-3 expression; conditions: for Expression of platelet/endothelial tetraspan antigen -3 (PETA-3, CD151): baseline 88.7 ± 24.2
Method: as §1, §2

[8] = tested on: platelet vitronectin receptor (CD51/CD61); assay: Whole blood flow cytometry, vitronectin receptor expression; conditions: whole blood flow cytometry
Method: as §1, §2

[9] = tested on: platelet/endothelial cell adhesion molecule-1 (PECAM-1, CD31); assay: Whole blood flow cytometry, PECAM-1 expression; conditions: for Expression of platelet/endothelial cell adhesion molecule-1 (PECAM-1, CD31): baseline 69.2 ± 10.3
Method: as §1, §2

[10] = tested on: Glycoprotein IIb/IIIa activity (fibrinogen binding, PAC-1); assay: Whole blood flow cytometry, GP IIb/IIIa activity (PAC-1); conditions: for Glycoprotein IIb/IIIa activity (fibrinogen binding, PAC-1): baseline 10.3 ± 2.8
Method: as §1, §2

`CCCCC(=O)N(Cc1ccc(-c2ccccc2-c2nnn[nH]2)cc1)[C@H](C(=O)O)C(C)C` [Valsartan, (S)-N-(1-carboxy-2-methyl-prop-1-yl)-N-pentanoyl-N-[2;(1H-tetrazol-5-yl)biphenyl-4-yl-methyl]amine, reference compound] was tested, and the “Expression of platelet glycoprotein IIb/IIIa antigen (GPIIb, CD41)” value ([1]; drug 10 nM) was 531.2 ± 102.5 log MFI, the “Expression of platelet glycoprotein IIb/IIIa antigen (GPIIb, CD41)” value ([1]; drug 100 nM) was 502.9 ± 112.7 log MFI and the “Expression of platelet glycoprotein IIb/IIIa antigen (GPIIb, CD41)” value ([1]; drug 1 μM) was 498.2 ± 94.5 log MFI. For the same compound, the “Expression of platelet glycoprotein IIb/IIIa antigen (GPIIb, CD41)” value ([1]; drug 10 μM) was 506.7 ± 100.1 log MFI, the “Expression of platelet glycoprotein IIb/IIIa antigen (GPIIb, CD41)” value ([1]; drug 100 μM) was 455.2 ± 99.6 log MFI and the “Effect on expression of GP IIb/IIIa (CD 41) (in words)” value ([1]; whole blood flow cytometry) was “decreased expression of CD41 only at a high dose”. The “PFA-100 closure time with the epinephrine/collagen cartridge” value ([2]; drug 10 nM) was 187 ± 30 s, the “PFA-100 closure time with the epinephrine/collagen cartridge” value ([2]; drug 100 nM) was 209 ± 21 s and the “PFA-100 closure time with the epinephrine/collagen cartridge” value ([2]; drug 1 μM) was 268 ± 19 s. For the same compound, the “PFA-100 closure time with the epinephrine/collagen cartridge” value ([2]; drug 10 μM) was 278 ± 20 s, the “PFA-100 closure time with the epinephrine/collagen cartridge” value ([2]; drug 100 μM) was 200 ± 27 s and the “Expression of glycoprotein Ib (GPIb, CD42b)” value (“Expression of glycoprotein Ib” for short) ([3]; drug 10 nM) was 256.4 ± 31.4 log MFI. For the same compound, the “Expression of glycoprotein Ib” value ([3]; drug 100 nM) was 248.7 ± 20.9 log MFI, the “Expression of glycoprotein Ib” value ([3]; drug 1 μM) was 264.8 ± 18.2 log MFI and the “Expression of glycoprotein Ib” value ([3]; drug 10 μM) was 244.3 ± 46.9 log MFI. For the same compound, the “Expression of glycoprotein Ib” value ([3]; drug 100 μM) was 255.9 ± 19.7 log MFI, the “Effect on GP Ib (CD42) (in words)” value ([3]; whole blood flow cytometry) was “not associated with any effect” and the “Formation of platelet-leukocyte microparticles (CD151 + CD14)” value (“Formation” below) ([4]; drug 10 nM) was 91.2 ± 20.5 log MFI. The “Formation” value ([4]; drug 100 nM) was 88.4 ± 21.9 log MFI, the “Formation” value ([4]; drug 1 μM) was 93.5 ± 23.8 log MFI and the “Formation” value ([4]; drug 10 μM) was 96.5 ± 18.7 log MFI. The “Formation” value ([4]; drug 100 μM) was 90.5 ± 19.2 log MFI, the “Effect on platelet-leukocyte microparticles (CD151+14) (in words)” value ([4]; whole blood flow cytometry) was “not associated with any effect” and the “Ultegra Analyzer” value ([5]; drug 10 nM) was 164 ± 16 platelet activation units. The “Ultegra Analyzer” value ([5]; drug 100 nM) was 160 ± 29 platelet activation units, the “Ultegra Analyzer” value ([5]; drug 1 μM) was 129 ± 26 platelet activation units and the “Ultegra Analyzer” value ([5]; drug 10 μM) was 130 ± 31 platelet activation units. The “Ultegra Analyzer” value ([5]; drug 100 μM) was 152 ± 19 platelet activation units, the “Expression of lysosome associated membrane protein -1 (LAMP-1, CD107a)” value (shortened to “Expression … (LAMP-1, CD107a)”) ([6]; drug 10 nM) was 9.1 ± 3.8 log MFI and the “Expression … (LAMP-1, CD107a)” value ([6]; drug 100 nM) was 8.9 ± 2.7 log MFI. For the same compound, the “Expression … (LAMP-1, CD107a)” value ([6]; drug 1 μM) was 9.4 ± 3.9 log MFI, the “Expression … (LAMP-1, CD107a)” value ([6]; drug 10 μM) was 6.5 ± 3.2 log MFI and the “Expression … (LAMP-1, CD107a)” value ([6]; drug 100 μM) was 10.1 ± 4.5 log MFI. For the same compound, the “Expression of platelet/endothelial tetraspan antigen -3 (PETA-3, CD151)” value ([7]; drug 10 nM) was 84.1 ± 19.7 log MFI, the “Expression of platelet/endothelial tetraspan antigen -3 (PETA-3, CD151)” value ([7]; drug 100 nM) was 91.5 ± 23.4 log MFI and the “Expression of platelet/endothelial tetraspan antigen -3 (PETA-3, CD151)” value ([7]; drug 1 μM) was 81.6 ± 20.1 log MFI. The “Expression of platelet/endothelial tetraspan antigen -3 (PETA-3, CD151)” value ([7]; drug 10 μM) was 87.9 ± 18.3 log MFI, the “Expression of platelet/endothelial tetraspan antigen -3 (PETA-3, CD151)” value ([7]; drug 100 μM) was 91.7 ± 22.1 log MFI and the “Effect on PETA-3 (CD151) (in words)” value ([7]; whole blood flow cytometry) was “not associated with any effect”. For the same compound, the “Effect on expression of vitronectin receptors (in words)” value [8] was “moderately reduced”, the “Expression of platelet/endothelial cell adhesion molecule-1 (PECAM-1, CD31)” value ([9]; drug 10 nM) was 71.8 ± 11.9 log MFI and the “Expression of platelet/endothelial cell adhesion molecule-1 (PECAM-1, CD31)” value ([9]; drug 100 nM) was 70.6 ± 12.6 log MFI. For the same compound, the “Expression of platelet/endothelial cell adhesion molecule-1 (PECAM-1, CD31)” value ([9]; drug 1 μM) was 74.5 ± 16.2 log MFI, the “Expression of platelet/endothelial cell adhesion molecule-1 (PECAM-1, CD31)” value ([9]; drug 10 μM) was 68.2 ± 16.2 log MFI and the “Expression of platelet/endothelial cell adhesion molecule-1 (PECAM-1, CD31)” value ([9]; drug 100 μM) was 70.6 ± 15.8 log MFI. The “Effect on PECAM-1 (CD31) (in words)” value ([9]; whole blood flow cytometry) was “not associated with any effect”, the “Glycoprotein IIb/IIIa activity (fibrinogen binding, PAC-1)” value (“Glycoprotein IIb/IIIa activity” for short) ([10]; drug 10 nM) was 9.3 ± 2.87 log MFI and the “Glycoprotein IIb/IIIa activity” value ([10]; drug 100 nM) was 11.2 ± 3.4 log MFI. For the same compound, the “Glycoprotein IIb/IIIa activity” value ([10]; drug 1 μM) was 7.0 ± 2.9 log MFI, the “Glycoprotein IIb/IIIa activity” value ([10]; drug 10 μM) was 6.9 ± 2.7 log MFI and the “Glycoprotein IIb/IIIa activity” value ([10]; drug 100 μM) was 9.9 ± 3.1 log MFI. For the same compound, the “Effect on fibrinogen binding (PAC-1) (in words)” value ([10]; whole blood flow cytometry) was “slightly reduced”.
